For 30 compounds, IC50, half-life and t1/2 results are on record in patent US10117864B2, “Substituted N-bicyclo-2-aryl-quinolin-4-carboxamides and use thereof” (BAYER PHARMA AKTIENGESELLSCHAFT, priority 2015, dated 2018).

As usually defined, the IC50 is the concentration that gives 50% inhibition.

One data set has as its target human FP receptor (Homo sapiens (Human), UniProt P43088). Description: In vitro test of inhibition of human FP receptor activity (PGF2α-induced calcium flux in FP-expressing CHEM1 cells). The data set is classed as cell-based. The following applies: PGF2α-induced (3 nM) calcium flux, some as mean values from multiple independent determinations. The text has this: • CRTH2 chemoattractant receptor-homologous molecule expressed on T helper type 2 cells • DMEM Dulbecco's modified Eagle's medium • DMSO dimethyl sulfoxide • DP PGD2 receptor • EC50 half-maximum effective concentration • Em emission • EP PGE2 receptor • Ex excitation • from Company (source) • FCS fetal calf serum • FP PGF2α receptor • HEPES 2-[4-(2-hydroxyethyl)piperazin-1-yl]ethanesulfonic acid • IC50 half-maximum inhibitory concentration • IP PGI2 receptor • MES 2-(N-morpholino)ethanesulfonic acid • Pen/Strep penicillin/streptomycin • PGD2 prostaglandin D2 • PGE2 prostaglandin E2 • PGF2α prostaglandin F2α • PGI2 prostaglandin I2 • TC tissue culture • TP thromboxane A2 receptor • Tris tris(hydroxymethyl)aminomethane • v/v volume to volume ratio (of a solution) • w/w weight to weight ratio (of a solution) B-1. In Vitro Test of Inhibition of Human FP Receptor Activity
For the characterization of test substances in respect of FP antagonism, PGF2α-induced calcium flux in FP-expressing CHEM1 cells (Millipore, HTS093C) was used.
Prior to the measurement, the medium is replaced by 30 μl of Fluo-8 AM loading buffer [calcium-free Tyrode (130 mM NaCl, 5 mM KCl, 20 mM HEPES, 1 mM MgCl2, 4.8 mM NaHCO3, pH 7.4), 2 mM CaCl2, 1× SmartBlock (from CANDOR Bioscience GmbH), 4.5 mM Probenecid, 5 μM Fluo-8 AM, 0.016% Pluronic®, 0.04% Brilliant black] and incubated at 37° C./5% CO2 for 30 minutes. […] 10 μl of the prediluted substance solution are added to the Fluo-8-laden cells and incubated at 37° C./5% CO2 for 10 minutes. The FP receptor is activated by adding 20 μl of 3 nM (final concentration) PGF2α in calcium-free Tyrode/2 mM CaCl2/0.04% Brilliant black, and the calcium flux is determined by measuring the fluorescence at ex. 470 nm/[…].
Table 1 below lists the IC50 values from this assay for individual working examples of the invention (some as mean values from multiple independent individual determinations): […]
(In general: A change in cytosolic calcium serves as a functional read-out for many receptors and channels.)

The conditions of data set [1]: eliminated renally; cited from earlier work.
For data set [2] the following is noted: unstable molecule, rearranged enzymatically in lung, liver and kidney to 15-ketodihydro-PGF2α; cited from earlier work.

Sequence of human FP receptor (P43088 whole entry): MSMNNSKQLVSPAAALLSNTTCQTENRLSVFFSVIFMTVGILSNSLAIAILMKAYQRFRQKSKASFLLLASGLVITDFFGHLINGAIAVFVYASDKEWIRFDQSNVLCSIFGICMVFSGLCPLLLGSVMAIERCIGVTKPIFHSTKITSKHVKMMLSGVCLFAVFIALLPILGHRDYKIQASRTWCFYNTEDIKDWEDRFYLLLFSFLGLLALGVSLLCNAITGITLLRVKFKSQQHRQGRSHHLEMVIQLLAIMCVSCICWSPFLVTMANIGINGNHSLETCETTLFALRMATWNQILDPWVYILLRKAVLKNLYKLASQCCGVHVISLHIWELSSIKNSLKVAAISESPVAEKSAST

In the case of `O=C(NC12CCC(C(=O)O)(CC1)CC2)c1c(Cl)c(-c2ccccc2)nc2ccc(Br)cc12` [Example 30, 4-{[(6-Bromo-3-chloro-2-phenylquinolin-4-yl)carbonyl]amino}bicyclo[2.2.2]octane-1-carboxylic acid], the half-maximal inhibitory concentration (IC50) at human FP receptor was found to be 52 nM.

On to `CCCc1c(-c2ccccc2)nc2ccc(Br)cc2c1C(=O)NC12CCC(C(=O)O)(CC1)CC2` [Example 31, 4-{[(6-Bromo-2-phenyl-3-propylquinolin-4-yl)carbonyl]amino}bicyclo[2.2.2]octane-1-carboxylic acid], for which the concentration for half-maximal inhibition (IC50) on human FP receptor was 351 nM. In the case of `O=C(NC12CCC(C(=O)O)(CC1)CC2)c1c(Cl)c(-c2ccccc2)nc2ccc(I)cc12` [Example 32, 4-{[(3-Chloro-6-iodo-2-phenylquinolin-4-yl)carbonyl]amino}bicyclo[2.2.2]octane-1-carboxylic acid], the concentration for half-maximal inhibition (IC50) at human FP receptor worked out at 22 nM. On the same count and under the same terms, next, `O=C(NC12CCC(C(=O)O)(CC1)CC2)c1c(C2CC2)c(-c2ccccc2)nc2ccc(I)cc12` [Example 33, 4-{[(3-Cyclopropyl-6-iodo-2-phenylquinolin-4-yl)carbonyl]amino}bicyclo[2.2.2]octane-1-carboxylic acid]: 51 nM; `Cc1c(-c2ccccc2)nc2ccc(C(F)(F)F)cc2c1C(=O)NC12CCC(C(=O)O)(CC1)CC2` [Example 34, 4-({[3-Methyl-2-phenyl-6-(trifluoromethyl)quinolin-4-yl]carbonyl}amino)bicyclo[2.2.2]octane-1-carboxylic acid]: 505 nM.

Regarding `O=C(NC12CCC(C(=O)O)(CC1)CC2)c1c(O)c(-c2ccccc2)nc2ccc(Br)cc12` [Example 35, 4-{[(6-Bromo-3-hydroxy-2-phenylquinolin-4-yl)carbonyl]amino}bicyclo[2.2.2]octane-1-carboxylic acid], the IC50 at human FP receptor worked out at 430 nM. For the compound `Cc1c(-c2ccccc2)nc2ccc(Br)cc2c1C(=O)NC12CCC(C(N)=O)(CC1)CC2` [Example 36, 6-Bromo-N-(4-carbamoylbicyclo[2.2.2]oct-1-yl)-3-methyl-2-phenylquinoline-4-carboxamide], on human FP receptor, the concentration for half-maximal inhibition (IC50) amounted to 553 nM.

`Cc1c(-c2ccccc2)nc2ccc(Br)cc2c1C(=O)NC12CC(C(=O)O)(C1)C2` [Example 37, 3-{[(6-Bromo-3-methyl-2-phenylquinolin-4-yl)carbonyl]amino}bicyclo[1.1.1]pentane-1-carboxylic acid]: the half-inhibitory concentration (IC50) on human FP receptor amounted to 723 nM. Same read-out and setting: next, `Cc1c(-c2ccccc2)nc2ccc(I)cc2c1C(=O)NC12CCC(C(=O)O)(CC1)C2` [Example 38, 4-{[(6-Iodo-3-methyl-2-phenylquinolin-4-yl)carbonyl]amino}bicyclo [2.2.1]heptane-1-carboxylic acid]: 1280 nM; `Cc1c(-c2ccccc2)nc2ccc(Br)cc2c1C(=O)NC12CCCC(C(=O)O)(CC1)CC2` [Example 39, 5-{[(6-Bromo-3-methyl-2-phenylquinolin-4-yl)carbonyl]amino}bicyclo[3.2.2]nonane-1-carboxylic acid]: 230 nM. As for `O=C(NC12CCCC(C(=O)O)(CC1)CC2)c1c(Cl)c(-c2ccccc2)nc2ccc(Br)cc12` [Example 40, 5-{[(6-Bromo-3-chloro-2-phenylquinolin-4-yl)carbonyl]amino}bicyclo[3.2.2]nonane-1-carboxylic acid], the IC50 at human FP receptor is 195 nM.

Take `O=C(NC12CCCC(C(=O)O)(CC1)CC2)c1c(Cl)c(-c2ccccc2)nc2ccc(I)cc12` [Example 41, 5-{[(3-Chloro-6-iodo-2-phenylquinolin-4-yl)carbonyl]amino}bicyclo[3.2.2]nonane-1-carboxylic acid]: the half-maximal inhibitory concentration (IC50) at human FP receptor was found to be 48 nM. As for `O=C(NC12CCCC(C(=O)O)(CC1)CC2)c1c(C2CC2)c(-c2ccccc2)nc2ccc(I)cc12` [Example 42, 5-{[(3-Cyclopropyl-6-iodo-2-phenylquinolin-4-yl)carbonyl]amino}bicyclo[3.2.2]nonane-1-carboxylic acid], the IC50 on human FP receptor was 33 nM. On the same count and under the same terms, next, `Cc1c(-c2ccccc2)nc2ccc(Br)cc2c1C(=O)NC12C3C4C1C1C2C3C41C(=O)O` (stereo not drawn) [Example 43, 4-{[(6-Bromo-3-methyl-2-phenylquinolin-4-yl)carbonyl]amino}cubane-1-carboxylic acid]: 198 nM; `Cc1c(-c2ccccc2)nc2ccc(I)cc2c1C(=O)NC12C3C4C1C1C2C3C41C(=O)O` (stereo not drawn) [Example 44, 4-{[(6-Iodo-3-methyl-2-phenylquinolin-4-yl)carbonyl]amino}cubane-1-carboxylic acid]: 73 nM. Still for that read-out and setting: next, `O=C(NC12C3C4C1C1C2C3C41C(=O)O)c1c(Cl)c(-c2ccccc2)nc2ccc(Br)cc12` (stereo not drawn) [Example 45, 4-{[(6-Bromo-3-chloro-2-phenylquinolin-4-yl)carbonyl]amino}cubane-1-carboxylic acid]: 161 nM; `Cc1c(-c2cc(Br)cs2)nc2ccc(Br)cc2c1C(=O)NC12CCC(C(=O)O)(CC1)CC2` [Example 52, 4-({[6-Bromo-2-(4-bromo-2-thienyl)-3-methylquinolin-4-yl]carbonyl}amino)bicyclo[2.2.2]octane-1-carboxylic acid]: 58 nM; `Cc1ccc(-c2nc3ccc(Br)cc3c(C(=O)NC34CCC(C(=O)O)(CC3)CC4)c2C)s1` [Example 53, 4-({[6-Bromo-3-methyl-2-(5-methyl-2-thienyl)quinolin-4-yl]carbonyl}amino)bicyclo[2.2.2]octane-1-carboxylic acid]: 235 nM. The same measure, in the same setting: next, `Cc1c(-c2ccc(Cl)s2)nc2ccc(Br)cc2c1C(=O)NC12CCC(C(=O)O)(CC1)CC2` [Example 54, 4-({[6-Bromo-2-(5-chloro-2-thienyl)-3-methylquinolin-4-yl]carbonyl}amino)bicyclo[2.2.2]octane-1-carboxylic acid]: 240 nM; `Cc1c(-c2ccc(Br)s2)nc2ccc(Br)cc2c1C(=O)NC12CCC(C(=O)O)(CC1)CC2` [Example 55, 4-({[6-Bromo-2-(5-bromo-2-thienyl)-3-methylquinolin-4-yl]carbonyl}amino)bicyclo[2.2.2]octane-1-carboxylic acid]: 383 nM; `C#Cc1ccc2nc(-c3ccccc3)c(C)c(C(=O)NC34CCC(C(=O)O)(CC3)CC4)c2c1` [Example 56, 4-{[(6-Ethynyl-3-methyl-2-phenylquinolin-4-yl)carbonyl]amino}bicyclo[2.2.2]octane-1-carboxylic acid]: 148 nM. With `Cc1c(-c2ccccc2)nc2ccc(Br)cc2c1C(=O)NC12CCC(C(=O)O)(CC1)C(=O)C2` [Example 57, 4-{[(6-Bromo-3-methyl-2-phenylquinolin-4-yl)carbonyl]amino}-2-oxobicyclo[2.2.2]octane-1-carboxylic acid], the IC50 at human FP receptor was 637 nM. On to `Cc1c(-c2ccccc2)nc2ccc(Br)cc2c1C(=O)NC12CCC(C(=O)O)(CC1)C(F)(F)C2` [Example 58, 4-{[(6-Bromo-3-methyl-2-phenylquinolin-4-yl)carbonyl]amino}-2,2-difluorobicyclo[2.2.2]octane-1-carboxylic acid], for which, on human FP receptor, the IC50 is 668 nM. `Cc1c(-c2ccccc2)nc2ccc(Br)cc2c1C(=O)NC12CCC(C(=O)O)(CC1=O)CC2=O` [Example 63, 4-{[(6-Bromo-3-methyl-2-phenylquinolin-4-yl)carbonyl]amino}-3,5-dioxobicyclo [2.2.2]octane-1-carboxylic acid]: on human FP receptor, the IC50 stood at 82 nM. In the case of `Cc1c(-c2ccccc2)nc2ccc(I)cc2c1C(=O)NC12CCC(C(=O)O)(CC1)OC2` [Example 64, 4-{[(6-Iodo-3-methyl-2-phenylquinolin-4-yl)carbonyl]amino}-2-oxabicyclo [2.2.2]octane-1-carboxylic acid], the IC50 at human FP receptor stood at 762 nM. On the same count and under the same terms, next, `Cc1c(-c2ccccc2)nc2ccc(Br)cc2c1C(=O)N[C@@H]1[C@@H]2CC[C@H]1C[C@H](C(=O)O)C2` [Example 65, (3-exo,8-anti)-8-{[(6-Bromo-3-methyl-2-phenylquinolin-4-yl)carbonyl]amino}bicyclo[3.2.1]octane-3-carboxylic acid]: 824 nM; `N#Cc1c(-c2ccccc2)nc2ccc(Br)cc2c1C(=O)NC12CCC(C(=O)O)(CC1)CC2` [Example 66, 4-{[(6-Bromo-3-cyano-2-phenylquinolin-4-yl)carbonyl]amino}bicyclo[2.2.2]octane-1-carboxylic acid]: 762 nM. The same measure, in the same setting: next, `C=Cc1c(-c2ccccc2)nc2ccc(Br)cc2c1C(=O)NC12CCC(C(=O)O)(CC1)CC2` [Example 67, 4-{[(6-Bromo-2-phenyl-3-vinylquinolin-4-yl)carbonyl]amino}bicyclo[2.2.2]octane-1-carboxylic acid]: 440 nM. In the case of Bleomycin, the half-life entry in data set [1] is “about 3 hours”. On to Prostaglandin F2alpha [PGF2α], for which the t1/2 in data set [2] was under 1 min.
